Reference: US10550094B2, “Compounds having antioxidant activity against free radicals and anti-inflammatory activity, and corresponding pharmaceutical or cosmetic compositions for skin care” (GIULIANI S.P.A., priority 2015, dated 2020)

Assay: HORAC Hydroxyl radical antioxidant capacity assay
Description: HORAC Assay: Hydroxyl Antioxidant Capacity In Vitro
The commercial kit “Oxiselect Hydroxyl Radical Antioxidant Capacity (HORAC) activity assay” (Cell Biolabs).
The HORAC assay esxpresses the compound antiradical capacity towards the hydroxyl radical OH′ and is based on the oxidation of a fluorescent probe by hydroxyl radicals through a hydrogen transfer process (HAT). Hydroxyl radicals are produced by a radical initiator hydroxyl and by Fenton's reagent, which quenches the fluorescent probe over time. The antioxidants present in the sample block the oxidation by the hydroxyl radical of the fluorescent probe until the antioxidant activity in the sample runs out. The remaining hydroxyl radicals destroy the fluorescence of the fluorescent probe. The antioxidant capacity of the sample is related to the fluorescence decay curve, which usually is represented as the area under the curve (AUC). The AUC is used to quantify the total antioxidant activity of the hydroxyl radical in a sample and is compared to the curve of an antioxidant standard.
The compounds of the invention were tested at the following concentrations: 13.5 μM; 27 μM, 13.5 mM; 27 mM.
For comparison purposes, also samples of the compound monofurfurylidene-2.4-sorbitol defined below by the acronym ARGB11, were in this case tested under the same two concentrations, as a reference compound according to EP0345362 mentioned above as the background art of substances with free radical inhibition activity.

OC[C@@H](O)[C@H]1OC(c2ccco2)O[C@@H](CO)[C@H]1O (stereo partly shown) [ARGB11, monofurfurylidene-2.4-sorbitol, reference compound]
HORAC (Hydroxyl Radical Antioxidant Capacity) (13.5 μM): 31.04 μMole GAE/L | HORAC (Hydroxyl Radical Antioxidant Capacity) (27 μM): 40.110 μMole GAE/L | HORAC (Hydroxyl Radical Antioxidant Capacity) (13.5 mM): 308.497 μMole GAE/L | HORAC (Hydroxyl Radical Antioxidant Capacity) (27 mM): 408.795 μMole GAE/L
